Test results published in paper PMC11513892, “Discovery of a Series of Macrocycles as Potent Inhibitors of Leishmania Infantum” (Journal of Medicinal Chemistry, 2024).
Read-outs that look alike come from different tables or passages of the source.

Tests used:
MRC-5 cells = experiment: Host cell cytotoxicity in MRC-5 cells; format: cell-based, human; conditions: CSV supplement; decimal comma
MDR1 = experiment: in vitro; format: in vitro ADME, canine; conditions: dog; for Papp B→A: MDCK-MDR1, pH 7.4; for Papp A→B: MDCK-MDR1, pH 7.4, Papp AB
Procedure: (§1) The potency of macrocycles 1–12 to inhibit the growth of L. infantum was determined in a phenotypic assay in which the parasite was grown in primary peritoneal mouse macrophages (PMMs). To understand whether the SAR for inhibition of parasitic growth is impacted by low cell permeability, the permeability of compounds 1–12 was determined separately. Madin-Darby canine kidney (MDCK) cells transfected with the human MDR1 (multidrug resistance 1) gene (MDCK-MDR1 cells) were used to determine permeabilities in the apical to basolateral direction (Papp AB) as well as efflux ratios (ERs). […] Lipophilicity (Log D at pH 7.4), aqueous kinetic solubility and mouse liver microsomal metabolism were also determined for 1–12, and are discussed separately (cf. physiochemical properties and ADMET, below).
(§2) The kinetic solubility in phosphate buffered saline at pH 7.4, chromatographic Log D at pH 7.4, cell permeability across a MDCK-MDR1 cell monolayer at pH 7.4, and the clearance in mouse liver microsomes of 1–12 was determined at TCG Lifesciences.

T. b. brucei = experiment: Growth of T. b. brucei trypomastigotes in axenic culture; format: cell-based; conditions: Trypanosoma brucei
Text: (§3) We previously reported the synthesis of a series of macrocycles, including 1 (Figure 2A), designed to investigate how structural features influence molecular chameleonicity.[15],[21] Originating from the structural similarities between 1 and hymenocardine, we investigated 1 in screens for P. falciparum and four kinetoplastid parasites: T. b. brucei, T. b. rhodesiense, T. cruzi, and L. infantum. In the screens, we also included compounds 2 and 3 (Figure 2A), which were obtained from an intermediate late in the synthetic route to 1. Since very few validated protein targets relevant to clearance of parasites are known, phenotypic assays were used to investigate the antiparasitic activity for all five parasites. For malaria, the P. falciparum blood stage 3D7 strain was used to test the three compounds. For the two Trypanosoma brucei species, the reduction in trypomastigote growth in culture medium was determined after the addition of 1–3. For T. cruzi, the intracellular parasite growth in infected human fibroblasts (MRC-5 cell line) was assessed in the presence and absence of the three inhibitors. Similarly, the growth of L. infantum was assessed in infected primary mouse macrophages (PMMs) in the presence and absence of the inhibitors. […] The assays for T. cruzi and L. infantum are complex, i.e., they determine the degree of inhibition of parasitic replication in a mammalian cell line; this complexity may lead to a high variability for some compounds.
(§4) The growth of the P. falciparum blood stage 3D7 strain,[53] the two T. brucei species in axenic cultures,[54]T. cruzi in infected human fibroblasts (MRC-5 cell line),[55] and of L. infantum in infected primary mouse macrophages (PMMs)[56] was determined as previously reported in the presence and absence of inhibitors 1–12.

T. cruzi = experiment: Intracellular growth of T. cruzi in infected human fibroblasts (MRC-5 cell line); format: cell-based; conditions: Trypanosoma cruzi
Text: as §3, §4

L. infantum = experiment: Growth of L. infantum in infected primary mouse macrophages (PMMs), phenotypic assay; format: cell-based, Leishmania infantum; conditions: for EC50: Leishmania infantum, Macrophage; for loss in potency compared to 3, L. infantum: relative to compound 3
Text: as §3, §1, §4

[1] = Chromatographic Log D at pH 7.4; format: physicochemical; conditions: 1-octanol/PBS pH 7.4, determined by chromatography, mean of two measurements
Procedure: as §2

[2] = Clearance in mouse liver microsomes; format: in vitro ADME; conditions: for microsomal CLint: mouse, liver microsomes
Procedure: as §2

T. b. rhodesiense = experiment: Growth of T. b. rhodesiense trypomastigotes in axenic culture; format: cell-based, Trypanosoma brucei rhodesiense; conditions: Trypanosoma brucei
Text: as §3, §4

[3] = Kinetic solubility in phosphate buffered saline at pH 7.4; format: physicochemical
Procedure: as §2

[4] = system: primary mouse macrophages (PMMs); experiment: Host cell cytotoxicity in primary mouse macrophages (PMM); format: cell-based; conditions: CSV supplement; decimal comma
[5] = MDCK-MDR1, pH 7.4, ER, efflux ratio (BA/AB)
[6] = MDCK-MDR1, pH 7.4, MDCK MDR1 - pH 7.4 Efflux Ratio
[7] = CSV supplement, decimal comma, read-out: EC50 T.b. brucei Squib 427
[8] = MRC5, Table S1, mean (SD), 2 to 14 measurements, unit not given in Table S1, read-out: In vitro potency, T. cruzi
[9] = TULAHUEN, MRC5, read-out: EC50 T. cruzi Tulahuen C4 (LacZ)
[10] = CSV supplement, decimal comma, read-out: EC50 L. infantum MHOM/MA(BE)/67
[11] = Table 1, mean (standard deviation, number of measurements), read-out: EC50 (μM), inhibition of the growth of L. infantum
[12] = CSV supplement, read-out: CLint in vitro Mouse Microsomes
[13] = incubation with mouse liver microsomes, read-out: CLint
[14] = RHODESIENSE / STIB900, CSV supplement, decimal comma, read-out: EC50 T.b. rhodesiense STIB 900
[15] = phosphate buffered saline, pH 7.4, CSV supplement, read-out: Kinetic solubility
[16] = phosphate buffered saline, pH 7.4, phosphate buffered saline pH 7.4, assay range 2.5–200 μM, read-out: solubility (kinetic)
[17] = Table S1, mean (SD), 2 to 14 measurements, unit not given in Table S1, read-out: In vitro potency, T. b. brucei
[18] = RHODESIENSE, Table S1, mean (SD), 2 to 14 measurements, unit not given in Table S1, read-out: In vitro potency, T. b. rhodesiense

C[C@@H]1NC(=O)[C@@H](NC(=O)OC(C)(C)C)Cc2ccc(cc2)Oc2ccc(cc2NC(=O)c2ccccn2)C(=O)CNC1=O [Compound 7, tert-Butyl ((8S,11S)-8-Methyl-4,7,10-trioxo-3^2-(picolinamido)-2-oxa-6,9-diaza-1,3(1,4)-dibenzenacyclododecaphane-11-yl)carbamate]
MRC-5 cells Human Lung Fibroblast Cells (cytotoxicity) (MRC-5 cells): >64 µM | Papp B→A (MDR1): 39.3 ×10⁻⁶ cm/s | efflux ratio (MDR1; [5]): 28 | efflux ratio (MDR1; [6]): 28.3 | Papp A→B (MDR1): 1.4 ×10⁻⁶ cm/s | EC50 (T. b. brucei; [7]): 49 µM | EC50 (T. cruzi; [8]): 36 µM | EC50 (T. cruzi; [9]): 35.5 µM | EC50 (L. infantum; [10]): 15.5 µM | EC50 (L. infantum; [11]): 16 µM | loss in potency compared to 3, L. infantum (L. infantum): ~10 fold | chromatographic logD [1]: 3.5 | t(1/2), Mouse Microsomes ([2]; CSV supplement): 5,8 min | microsomal CLint [2, 12]: 297 µL/min/mg | microsomal CLint [2, 13]: 300 µL/min/mg | EC50 (T. b. rhodesiense; [14]): 9.7 µM | solubility kinetic ([3]; phosphate buffered saline pH 7.4, assay range 2.5–200 μM, read-out: solubility (kinetic)): 126 µM | solubility kinetic [3, 15]: 73.7 µg/mL | solubility kinetic [3, 16]: > 100 µM | PMM Primary Mouse Macrophages (inf-LMPH) (cytotoxicity) [4]: >64 µM

CC(C)(C)OC(=O)N[C@H]1Cc2ccc(cc2)Oc2ccc(cc2NC(=O)c2ccccn2)C(=O)CNC(=O)[C@@H](Cc2ccccc2)NC1=O [Compound 8, tert-Butyl ((8R,11S)-8-Benzyl-4,7,10-trioxo-3^2-(picolinamido)-2-oxa-6,9-diaza-1,3(1,4)-dibenzenacyclododecaphane-11-yl)carbamate]
MRC-5 cells Human Lung Fibroblast Cells (cytotoxicity) (MRC-5 cells): >64 µM | Papp B→A (MDR1): 22.3 ×10⁻⁶ cm/s | efflux ratio (MDR1; [5]): 7.6 | efflux ratio (MDR1; [6]): 7.6 | Papp A→B (MDR1): 2.9 ×10⁻⁶ cm/s | EC50 (T. b. brucei; [7]): 8.1 µM | EC50 (T. cruzi; [9]): 6.1 µM | EC50 (L. infantum; [11]): 8.2 µM | chromatographic logD [1]: 4.8 | t(1/2), Mouse Microsomes ([2]; CSV supplement): <3 min | microsomal CLint [2, 12]: > 578 µL/min/mg | microsomal CLint [2, 13]: > 580 µL/min/mg | EC50 (T. b. rhodesiense; [14]): 6.4 µM | solubility kinetic [3, 15]: 1.9 µg/mL | solubility kinetic [3, 16]: 2.9 µM | PMM Primary Mouse Macrophages (inf-LMPH) (cytotoxicity) [4]: >64 µM

CC(=O)N[C@H]1Cc2ccc(cc2)Oc2ccc(cc2NC(=O)c2ccccn2)C(=O)CNC(=O)[C@H](Cc2ccccc2)NC1=O [Compound 11]
MRC-5 cells Human Lung Fibroblast Cells (cytotoxicity) (MRC-5 cells): >64 µM | Papp B→A (MDR1): 17.8 ×10⁻⁶ cm/s | efflux ratio (MDR1; MDCK-MDR1, pH 7.4, CSV supplement, pH 7.4, read-out: MDCK MDR1 - pH 7.4 Efflux Ratio): 15.7 | efflux ratio (MDR1; MDCK-MDR1, pH 7.4, MDCK-MDR1 cell monolayer, read-out: ER, efflux ratio (BA/AB)): 16 | Papp A→B (MDR1): 1.1 ×10⁻⁶ cm/s | EC50 (T. b. brucei; [7]): 26.8 µM | EC50 (T. b. brucei; [17]): 36 µM | EC50 (T. cruzi; [9]): 33 µM | EC50 (L. infantum; [10]): 37.5 µM | EC50 (L. infantum; [11]): 38 µM | loss in potency compared to 3, L. infantum (L. infantum): > 20 fold | chromatographic logD [1]: 3.2 | t(1/2), Mouse Microsomes ([2]; CSV supplement): 12,9 min | microsomal CLint [2, 12]: 134 µL/min/mg | microsomal CLint [2, 13]: 130 µL/min/mg | EC50 (T. b. rhodesiense; [14]): 23.6 µM | EC50 (T. b. rhodesiense; [18]): 24 µM | solubility kinetic [3, 15]: 58.3 µg/mL | solubility kinetic [3, 16]: 96 µM | PMM Primary Mouse Macrophages (inf-LMPH) (cytotoxicity) [4]: >64 µM

CC(C)(C)C(=O)N[C@H]1Cc2ccc(cc2)Oc2ccc(cc2NC(=O)c2ccccn2)C(=O)CNC(=O)[C@H](Cc2ccccc2)NC1=O [Compound 12, tert-Butyl ((8S,11S)-8-Benzyl-4,7,10-trioxo-11-pivalamido-2-oxa-6,9-diaza-1,3(1,4)-dibenzenacyclododecaphane-3^2-yl)picolinamide]
MRC-5 cells Human Lung Fibroblast Cells (cytotoxicity) (MRC-5 cells): >64 µM | Papp B→A (MDR1): 31.8 ×10⁻⁶ cm/s | efflux ratio (MDR1; [5]): 21 | efflux ratio (MDR1; [6]): 20.8 | Papp A→B (MDR1): 1.5 ×10⁻⁶ cm/s | EC50 (T. b. brucei; [7]): 30.4 µM | EC50 (T. b. brucei; [17]): 30 µM | EC50 (T. cruzi; [8]): 64 µM | EC50 (T. cruzi; [9]): > 64 µM | EC50 (L. infantum; [11]): 7.1 µM | chromatographic logD [1]: 4.4 | t(1/2), Mouse Microsomes ([2]; CSV supplement): <3 min | microsomal CLint [2, 12]: > 578 µL/min/mg | microsomal CLint [2, 13]: > 580 µL/min/mg | EC50 (T. b. rhodesiense; [14]): 21.3 µM | EC50 (T. b. rhodesiense; [18]): 21 µM | solubility kinetic [3, 15]: 10.3 µg/mL | solubility kinetic [3, 16]: 16 µM | PMM Primary Mouse Macrophages (inf-LMPH) (cytotoxicity) [4]: >64 µM

CCCCCCCCCCCCCCCCOP(=O)([O-])OCC[N+](C)(C)C [Miltefosine, miltefosine, reference compound]
EC50 (L. infantum; [11]): 6.1 µM
